± gives the uncertainty stated by the source.
Experiment: xn = mol fraction of the nth substance listed

CN(C)CCCO + NCCCO
viscosity [mPa·s], 100 kPa
Settings | x2 = 0.1 | x2 = 0.1998 | x2 = 0.2997 | x2 = 0.4008 | x2 = 0.5 | x2 = 0.5024 | x2 = 0.6004 | x2 = 0.7021 | x2 = 0.7992 | x2 = 0.9007
293.15 K | 8.883 ± 0.45 | 10.61 ± 0.54 | 12.71 ± 0.64 | 15.1 ± 0.76 | 18.49 ± 0.93 | 18.49 ± 0.93 | 21.41 ± 1.1 | 24.67 ± 1.2 | 29.63 ± 1.5 | 34.66 ± 1.7
303.15 K | 6.062 ± 0.31 | 7.04 ± 0.36 | 8.322 ± 0.42 | 9.824 ± 0.5 | 11.73 ± 0.81 | 11.73 ± 0.81 | 13.48 ± 0.68 | 15.36 ± 0.78 | 18.09 ± 0.91 | 20.64 ± 1
313.15 K | 4.35 ± 0.22 | 5.099 ± 0.26 | 5.838 ± 0.29 | 6.628 ± 0.33 | 7.819 ± 0.49 | 7.819 ± 0.49 | 8.782 ± 0.44 | 9.908 ± 0.5 | 11.62 ± 0.59 | 13.22 ± 0.67
323.15 K | 3.23 ± 0.16 | 3.72 ± 0.19 | 4.206 ± 0.21 | 4.668 ± 0.24 | 5.389 ± 0.27 | 5.389 ± 0.27 | 6.034 ± 0.3 | 6.779 ± 0.34 | 7.862 ± 0.4 | 8.889 ± 0.45

CC(O)CN(C)C (stereo unspecified) + NCc1ccccc1
viscosity [mPa·s], 101 kPa
Settings | x1 = 0.1003 | x1 = 0.1998 | x1 = 0.3 | x1 = 0.4001 | x1 = 0.5002 | x1 = 0.5999 | x1 = 0.7 | x1 = 0.8 | x1 = 0.8997
293.15 K | 1.87 ± 0.04 | 1.91 ± 0.04 | 1.92 ± 0.04 | 1.91 ± 0.04 | 1.88 ± 0.04 | 1.84 ± 0.04 | 1.78 ± 0.04 | 1.7 ± 0.04 | 1.6 ± 0.04
303.15 K | 1.5 ± 0.04 | 1.51 ± 0.04 | 1.51 ± 0.04 | 1.5 ± 0.03 | 1.48 ± 0.03 | 1.44 ± 0.03 | 1.39 ± 0.03 | 1.33 ± 0.03 | 1.25 ± 0.03
313.15 K | 1.23 ± 0.03 | 1.23 ± 0.03 | 1.22 ± 0.03 | 1.21 ± 0.03 | 1.18 ± 0.03 | 1.14 ± 0.03 | 1.1 ± 0.03 | 1.05 ± 0.02 | 1 ± 0.02
323.15 K | 1.06 ± 0.03 | 1.05 ± 0.02 | 1.03 ± 0.02 | 1.01 ± 0.02 | 0.98 ± 0.02 | 0.95 ± 0.02 | 0.91 ± 0.02 | 0.87 ± 0.02 | 0.83 ± 0.02

O=[N+]([O-])c1ccccc1O + Nc1ccccc1
viscosity [mPa·s], 101 kPa
Settings | x1 = 0.07555 | x1 = 0.1616 | x1 = 0.246 | x1 = 0.3265 | x1 = 0.4134 | x1 = 0.5065 | x1 = 0.5908 | x1 = 0.6928 | x1 = 0.7919 | x1 = 0.878
303.15 K | 2.972 ± 0.029 | 2.863 ± 0.028 | 2.805 ± 0.027 | 2.802 ± 0.027 | 2.828 ± 0.028 | 2.881 ± 0.028 | 2.952 ± 0.029 | 3.068 ± 0.03 | 3.225 ± 0.032 | –
313.15 K | 2.322 ± 0.023 | 2.257 ± 0.022 | 2.224 ± 0.022 | 2.215 ± 0.021 | 2.23 ± 0.022 | 2.272 ± 0.022 | 2.328 ± 0.022 | 2.415 ± 0.023 | 2.515 ± 0.024 | 2.61 ± 0.025

CC(N)=O + O
101 kPa
Settings | viscosity [mPa·s]
293.15 K, x1 = 0.0438 | 1.015 ± 0.15
293.15 K, x1 = 0.0791 | 1.178 ± 0.19
293.15 K, x1 = 0.1282 | 1.416 ± 0.26
295.65 K, x1 = 0.02282 | 1.222 ± 0.033
295.65 K, x1 = 0.03616 | 1.155 ± 0.031
295.65 K, x1 = 0.03629 | 1.149 ± 0.031
295.65 K, x1 = 0.0429 | 1.262 ± 0.034
295.65 K, x1 = 0.07191 | 1.716 ± 0.046
295.65 K, x1 = 0.07575 | 1.47 ± 0.04
298.15 K, x1 = 0.0024 | 0.89 ± 0.18
298.15 K, x1 = 0.0185 | 0.991 ± 0.2
298.15 K, x1 = 0.06152 | 1.232 ± 0.25
298.15 K, x1 = 0.09656 | 1.458 ± 0.29
298.15 K, x1 = 0.1531 | 1.875 ± 0.38
298.15 K, x1 = 0.4073 | 4.442 ± 0.89
303 K, x1 = 0.0363 | 1.149 ± 0.14
303 K, x1 = 0.0438 | 1.015 ± 0.13
303 K, x1 = 0.0791 | 1.178 ± 0.15
303 K, x1 = 0.0928 | 1.416 ± 0.17

C[NH+](C)CCO.O=C([O-])CC(=O)O + O
101 kPa, x2 = 0.88
Settings | viscosity [mPa·s]
298 K | 9.67
313 K | 6.09

NC(CO)C(=O)[O-].[K+] (stereo unspecified) + O
viscosity [mPa·s], 100 kPa
Settings | x1 = 0.009 | x1 = 0.019 | x1 = 0.029 | x1 = 0.039 | x1 = 0.049 | x1 = 0.06
303.15 K | 0.9271 ± 0.041 | 1.088 ± 0.041 | 1.308 ± 0.041 | 1.575 ± 0.042 | 1.929 ± 0.043 | 2.448 ± 0.044
308.15 K | 0.8325 ± 0.041 | 0.9764 ± 0.041 | 1.175 ± 0.041 | 1.412 ± 0.041 | 1.719 ± 0.042 | 2.172 ± 0.043
313.15 K | 0.7628 ± 0.04 | 0.8877 ± 0.041 | 1.067 ± 0.041 | 1.279 ± 0.041 | 1.55 ± 0.042 | 1.949 ± 0.043
318.15 K | 0.696 ± 0.04 | 0.8049 ± 0.04 | 0.9686 ± 0.041 | 1.159 ± 0.041 | 1.398 ± 0.041 | 1.752 ± 0.042
323.15 K | 0.6347 ± 0.04 | 0.74 ± 0.04 | 0.8896 ± 0.041 | 1.061 ± 0.041 | 1.275 ± 0.041 | 1.59 ± 0.042
